Reference: US20260325510A1, “COMBINATIONS COMPRISING AN ATR INHIBITOR AND A PARP INHIBITOR AND METHODS OF USE THEREOF” (Jazz Pharmaceuticals Therapeutics, Inc., priority 2023, published 2026)

Experiments:
[1] = Hematology tolerability study; assay type: in vivo, female C57BL/6 mice; conditions: free ATR inhibitor in combination with free niraparib
Description: In order to study the effects of hematology tolerability under different dosing regimens, 8-12 week old, female C57BL/6 mice were used. Body weight was measured qd×5, then biweekly to the end of the study. Animals were weighed and monitored for survival and in-life observations were collected at the time of weight measurement. […] Mice were monitored individually to endpoint which was 18 days. Full volume blood was collected by terminal cardiac puncture under isoflurane anesthesia and analyzed for reticulocyte count/number, red blood cell count/number, hemoglobin, hematocrit, platelet count/number, white blood cell count/number, neutrophil count/number, monocyte count/number and lymphocyte count/number.

[2] = Baseline monotherapy tolerability, 4 weeks IV (complete blood count); assay type: in vivo, female athymic nude mice; conditions: 60 mg/kg IV, three times weekly
Description: Maximum tolerated dose studies were conducted on healthy, 6-8 week-old female athymic nude mice (Jackson Laboratories). For baseline monotherapy tolerability, 60 mg/kg of niraparib both in free and liposomal form was IV administered to nude mice at a dosing schedule of every other day followed by a two-day holiday (i.e., three days per week) for 4-weeks (n=5 for each cohort). Free drug was supplied in hydroxybetacyclodextrin in HEPES Buffered Saline with 5% dextrose, pH adjusted to 7.4. Study mice were then sacrificed at 24-hours post final injection with endpoint blood collection by cardiac puncture. Complete blood count (CBC) was then conducted on a Vetscan HM5 hematology analyzer (Zoetis, New Jersey, USA).
This study was conducted over a 4-week period to better capture hematopoietic turnover. Athymic nude mice were selected due to the presence of normal levels of neutrophils, monocytes, and red blood cells on top of a reduced number of non-functional lymphocytes. The immunocompromised nature of athymic nude mice allowed for better comparative translation of dose sensitivity to fully immunocompromised mice (i.e. NSG) that are required for xenograft studies.

| SMILES | hematological toxicity [1] | hematological toxicity [2] |
| --- | --- | --- |
| CNCc1ccc(-c2cc(-c3nc(-c4ccc(S(=O)(=O)C(C)C)cc4)cnc3N)on2)cc1 [berzosertib] | severe reticulocytopenia and leukopenia |  |
| NC(=O)c1cccc2cn(-c3ccc([C@@H]4CCCNC4)cc3)nc12 [FREE-NIRB, niraparib] |  | significant hematological toxicity in the form of macrocytic anemia |
